Test results as given in PubChem BioAssay (NCI).
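Briefly, cells in 96-well plates were exposed to five compound concentrations for 48 h, and endpoints were estimated by linear interpolation. The concentration for 50% growth inhibition is given as GI50. At the TGI there is no net growth.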 Peptide text beside a SMILES is read from it. * marks the point of attachment. OSu = O=C1CCC(=O)N1O*; OBn = c1ccc(CO*)cc1; Bn = c1ccc(C*)cc1

Columns and labels:
Assay in all cases: NCI tumour cell line growth inhibition, 48 h
786-0 renal = tested on: 786-0 renal
ACHN renal = tested on: ACHN renal
HS 578T breast = tested on: HS 578T breast
M14 melanoma = tested on: M14 melanoma
MCF7 breast = tested on: MCF7 breast
MDA-MB-231 breast = tested on: MDA-MB-231 breast
NCI/ADR-RES ovarian = tested on: NCI/ADR-RES ovarian
OVCAR-3 ovarian = tested on: OVCAR-3 ovarian
SK-OV-3 ovarian = tested on: SK-OV-3 ovarian
U251 CNS = tested on: U251 CNS

Structure (SMILES)	TGI (786-0 renal) [µM]	TGI (ACHN renal) [µM]	TGI (HS 578T breast) [µM]	TGI (M14 melanoma) [µM]	TGI (MCF7 breast) [µM]	TGI (MDA-MB-231 breast) [µM]	TGI (NCI/ADR-RES ovarian) [µM]	TGI (OVCAR-3 ovarian) [µM]	TGI (SK-OV-3 ovarian) [µM]	TGI (U251 CNS) [µM]	GI50 (MCF7 breast) [µM]	GI50 (OVCAR-3 ovarian) [µM]	GI50 (U251 CNS) [µM]	GI50 (ACHN renal) [µM]	GI50 (HS 578T breast) [µM]	GI50 (M14 melanoma) [µM]	GI50 (MDA-MB-231 breast) [µM]	GI50 (NCI/ADR-RES ovarian) [µM]	GI50 (SK-OV-3 ovarian) [µM]
O=[N+]([O-])c1ccc(-[n+]2ccc3ccccc3c2)c([N+](=O)[O-])c1	3.24	4.44	49.6	8.69	3.75	9.01	11.9	6.2	27.1	17.7									
NC(CNc1ccc(O)cc1)C(=O)O (centres undefined)	30.2	> 100		> 100				> 100	> 100	> 100									
Cc1csc2n(C)c(=O)c3ccccc3[n+]12	> 100	> 100	> 100	> 100	> 100	> 100	> 100	> 100	> 100	> 100									
CCOC(=O)/C=C1/Nc2cc(F)c(F)cc2NC1=O	> 100	> 100	> 100	> 100	> 100	> 100	> 100	> 100	> 100	> 100									
Cc1oc2c(C)c3oc(=O)cc(C)c3cc2c1CN	> 100	> 100		> 100				> 100	79.2	74.8									
CC1=CC(=O)/C(=C/N2CCNC2=S)C(=O)O1	> 100	> 100	> 100	> 100	> 100	> 100	> 100		> 100	> 100									
CCCCNCC(O)c1cc(-c2ccc(C(F)(F)F)cc2)nc(-c2ccc(C(F)(F)F)cc2)c1 (centres undefined)					3.54			3.66		3.39	1.79	1.98	1.73						
CCOC(=O)CCC(NC(=O)c1ccc(NCc2ccc3nc(-c4ccccc4)c(Cl)nc3c2)c2ccccc12)C(=O)OCC (centres undefined)	> 100	> 100		> 100	> 100	> 100	> 100	> 100	> 100	> 100									
C=C1[C@H](OCC(C)C)[C@@H](OC(=O)C(C)CC)[C@@H](O)C(C)(C)/C=C/[C@H](C)C(=O)[C@@]2(O)C[C@H](C)[C@H](O)[C@@H]2[C@H]1OC(=O)C(C)CC (some centres undefined)	> 20	> 13	10.6	> 11.1	> 16	> 12.5	> 20	> 13.7	> 20	> 20									
OCCNc1nc2c(N3CCCC3)nc(N3CCNCC3)nc2nc1NCc1ccccc1	28	28.9	51.4	29.4	28.3	29.4	> 100	18.6	31.1	23.3									
O=C(NC(CO)CO)c1ccc2cc(C(=O)N3CC(CCl)c4ccc([N+](=O)[O-])cc43)[nH]c2c1 (centres undefined)	> 100	> 100	> 100	> 100	> 100	> 100	> 100	> 100	> 100	> 100									
OC1(c2ccc(Cl)cc2)c2ccccc2C2=NCc3ccccc3CN21 (centres undefined)	19.4	17.8	32.5	8.08	17.9	37.9	26.2	6.33	21.2	25.1									
CC(C)CC(NC(=O)C(N)CCC(=O)OCc1ccccc1)C(=O)NC(COCc1ccccc1)C(=O)NC(Cc1ccccc1)C(=O)ON1C(=O)CCC1=O (centres undefined) (H-E(OBn)LS(Bn)F-OSu; configuration not given here)	> 100	> 100	76.1	> 100	78.5	40	85.3		87.8	68.5									
CCc1cc2c(oc3c4ccccc4ccc23)c(=O)[nH]1	> 10	> 10	> 10	> 10	> 10			> 10	> 10	> 10									
CC(CC(C)(C)[N+](C)(C)C)[N+](C)(C)C (centres undefined)	> 100	> 100		> 100	> 100		> 100	> 100	> 100	> 100									
C/C(=N\n1c(Cc2ccccc2)n[nH]c1=O)c1ccc([N+](=O)[O-])cc1	> 100		> 100	> 100	> 100	> 100	> 100	> 100		> 100									
CC(=O)C(C(=O)C(C)(C)C)C(=O)C(C)(C)C	> 100	> 100	> 100	> 100	> 100	> 100	> 100		> 100	> 100									
C=CCc1cccc2cc(C(=O)Nc3nc(C45CC6CC(CC(C6)C4)C5)cs3)c(=O)oc12	54.6	33.9	47.9		> 100	62.1	> 100	67.6		41.9									
Cc1nc2sccn2c1C(=O)OCCOCCOCCOCCOC(=O)c1c(C)nc2sccn12	> 100	> 100	> 100	> 100	> 100	> 100	> 100	> 100		> 100									
Cc1ccc(C2(c3ccc(C)c(O)c3C)CCN(C)CC2)c(C)c1O	> 100	> 100	> 100	> 100		> 100	> 100	> 100		> 100									
CN1N(c2ccccc2)C(=O)C2=NC=C(C#N)C(=N)C21C (centres undefined)	> 100	> 100		> 100	> 100	> 100	> 100	> 100	> 100	> 100									
CCCC1C(C#N)(C#N)C(C#N)=C(N)C1(C)C(C)=O (centres undefined)	> 100	> 100	> 100	> 100	> 100	> 100	> 100		> 100	> 100									
CC12CCC(C1)C(C)(C)C2OC(=O)c1ccccc1C(=O)O (centres undefined)	> 100	> 100	> 100	> 100	> 100	> 100	> 100		> 100	> 100									

Structure (SMILES)	TGI (786-0 renal) [µM]	TGI (ACHN renal) [µM]	TGI (HS 578T breast) [µM]	TGI (M14 melanoma) [µM]	TGI (MCF7 breast) [µM]	TGI (MDA-MB-231 breast) [µM]	TGI (NCI/ADR-RES ovarian) [µM]	TGI (OVCAR-3 ovarian) [µM]	TGI (SK-OV-3 ovarian) [µM]	TGI (U251 CNS) [µM]	GI50 (MCF7 breast) [µM]	GI50 (OVCAR-3 ovarian) [µM]	GI50 (U251 CNS) [µM]	GI50 (ACHN renal) [µM]	GI50 (HS 578T breast) [µM]	GI50 (M14 melanoma) [µM]	GI50 (MDA-MB-231 breast) [µM]	GI50 (NCI/ADR-RES ovarian) [µM]	GI50 (SK-OV-3 ovarian) [µM]
C1=C[C@]2(CCC13OCCO3)COc1ccccc12	> 100	> 100		> 100	> 100	> 100	96.4	> 100	> 100	> 100									
Clc1ccc(-c2nn3c(C45CC6CC(CC(C6)C4)C5)nnc3s2)cc1	> 100	> 100	> 100	> 100		> 100	> 100	> 100	> 100	> 100									
c1ccc(-c2nc3ccccc3n3nnnc23)cc1	> 100	> 100		> 100	> 100	> 100	> 100	> 100	> 100	> 100									
N#CI1OC(C(F)(F)F)(C(F)(F)F)c2ccccc21	27.2	36.9		36.2	42.3	54.7	40.3	29.2	> 100	52.5									
COC1CCC(n2c([C@@H]3CCCC(=O)N3c3ccc(F)c(F)c3)nc3cc(-c4c(C)noc4C)ccc32)CC1 (some centres undefined)		21.1	9.86	19.9	15.1	26	30	32.3	18.8	23.8	0.626	10.5	10.2	4.78	2.1	1.87	8.46	13.5	4.09
C/C(=N\NC(=O)N/N=C(\C)c1ccccn1)c1ccccn1	> 51.5	> 100	> 100	> 100	> 100		93.6	> 100	> 100	> 100									
CC(C)(C)c1cc(C2NC(=O)NC2=O)cc(C(C)(C)C)c1O (centres undefined)		> 100	69.8	> 100	83.3	> 100	> 100	> 100	> 100	> 100									
O=C1C=C(NCCc2cc(Br)c(O)c(Br)c2)C(=O)c2[nH]cnc21	> 100	> 100		57.7	48.9	67.9	> 100	> 100	> 100	> 100									
CCCN(CCC)c1c([N+](=O)[O-])cc(C(=O)N(C)C)cc1[N+](=O)[O-]	> 100	30.7		> 100				> 100	> 100	> 100									
COC(=O)C(N)CCCC(N)C(=O)NC(C)C(=O)NC(CCC(=O)NCCCNc1ccc([N+](=O)[O-])c2[nH]c3ccccc3c(=O)c12)C(N)=O (centres undefined)	16.6	16.2		17.9		28.8	25	24.9	26.7	18.4									
O=C1CC(Cl)c2c(Cl)sc(Cl)c21 (centres undefined)	2.82	3.45	> 27.9	3.94	2.11	> 25.7	> 28.5		33.3										
c1cn[nH]c1	> 10	> 10	> 10		> 10		> 10	> 10	> 10	> 10									
C/C(NC(=O)c1ccccc1)=C(/C(=O)c1ccccc1)[C@@H]1OC(C)(C)O[C@@H]1[C@H]1COC(C)(C)O1	39.7	> 100	> 100	> 100	> 100	> 100	> 100	> 100		> 100									
Cc1ccc(NC(=O)CC(=O)N2N=C(c3ccccc3)C(N=Nc3ccc(S(=O)(=O)CCOS(=O)(=O)O)cc3)C2=O)cc1 (centres undefined)	> 100	> 100	> 100	> 100	> 100	> 100	> 100	> 100		> 100									
CC(C)=CCC/C(C)=C/CC/C(C)=C/CSc1ccc(Cl)cc1C(=O)O	30.8	35.9	49.7	36.5	32.8	63.4		30.7	31.1	34.7									
O=c1cc2cc(O)[nH]c(=O)c2c(O)[nH]1				> 100				> 100	> 100	> 100									
Cn1c(=O)c2[nH]c(-n3nc(-c4ccccc4)cc3N)nc2n(C)c1=O	> 100	37		50	> 100	> 100	14.2	> 100	20.4	> 100									
Cc1ccc(Nc2ccc(Nc3ccc(C)cc3S(=O)(=O)O)c3c2C(=O)c2ccccc2C3=O)c(S(=O)(=O)O)c1	> 100	> 100		> 100				> 100	> 100	> 100									
CC(C)(Oc1ccc(C(=O)c2ccc(Cl)cc2)cc1Cl)C(=O)N1CCN(c2ccccc2)CC1	> 100			> 100				> 100	> 100	> 100									
C=C(COC(=O)C(C)C)[C@H]1Oc2ccc(C(C)=O)cc2[C@@H]1OC(=O)C(C)C	> 100	> 100	> 100	> 100	> 100	> 100		> 100	> 100	> 100									
Cc1[nH]c(=O)[nH]c(=O)c1C(=O)N(CCO)Cc1ccccc1		> 100	41.9	> 100	> 100	> 100		> 100	> 100	> 100									
CC(=O)OC1C(O)C(C)OC(OC(=O)C2CCC3C(C2)OC2(CC(OC(=O)/C=C/c4ccccc4)C(C)CO2)C32CO2)C1OC1OC(C)C(O)C(O)C1O (centres undefined)					0.0917		146	0.0917	0.213	0.12									
